Experimental data reported in PMC10724293, “New ruthenium-xanthoxylin complex eliminates colorectal cancer stem cells by targeting the heat shock protein 90 chaperone” (Cell Death & Disease, 2023).

How the values were obtained:
JUKART = experiment: Alamar blue cytotoxicity assay; assay type: cell-based, human; conditions: 72 h, read-out: IC50 and 95%CI
Method: (§1) The Alamar blue assay was used to determine cell viability as previously described. Cells were seeded into 96-well plates at a density of 7 × 10^3 cells per well for adherent cells or 3 × 10^4 cells per well for suspended cells. The drug was added to each well after 24 h of incubation for adherent cells or immediately for suspended cells and incubated for an additional 72 h. […] Each well received 100 µM resazurin (Sigma-Aldrich Co. St. Louis, MO, United States) four (for cell lines) or 24 (for primary culture) h before the end of the incubation. A SpectraMax 190 Microplate Reader (Molecular Devices, Sunnyvale, CA, USA) was used to measure absorbance at 570 and 600 nm.

DU 145 = experiment: Alamar blue cytotoxicity assay; assay type: cell-based, human; conditions: 72 h, read-out: IC50 and 95%CI
Method: as §1

SCC4 = experiment: Alamar blue cytotoxicity assay; assay type: cell-based, human; conditions: 72 h, read-out: IC50 and 95%CI
Method: as §1

A549 = experiment: Alamar blue cytotoxicity assay; assay type: cell-based, human; conditions: 72 h, read-out: IC50 and 95%CI
Method: as §1

CAL 27 = experiment: Alamar blue cytotoxicity assay; assay type: cell-based, human; conditions: 72 h, read-out: IC50 and 95%CI
Method: as §1

U-87 MG = experiment: Alamar blue cytotoxicity assay; assay type: cell-based, human; conditions: 72 h, read-out: IC50 and 95%CI
Method: as §1

THP-1 = experiment: Alamar blue cytotoxicity assay; assay type: cell-based, human; conditions: 72 h, read-out: IC50 and 95%CI
Method: as §1

MCF-7 = experiment: Alamar blue cytotoxicity assay; assay type: cell-based, human; conditions: 72 h, read-out: IC50 and 95%CI
Method: as §1

A-375 = experiment: Alamar blue cytotoxicity assay; assay type: cell-based, human; conditions: 72 h, read-out: IC50 and 95%CI
Method: as §1

[1] = test system: CR04 (malignant papillary mesothelioma); experiment: Alamar blue viability of primary cancer cells; assay type: cell-based, human; conditions: primary papilliferous malignant mesothelioma; 25 μg/ml (RXC 31.3 μM, DOX 46 μM); 96 h
Method: as §1
(§2) CR03 (metastatic cholangiocarcinoma) CR04 (malignant papillary mesothelioma) […]
(§3) Figure S1. […] Cells were exposed to 25 […]
(§4) measured after 96 h using the Alamar blue assay. The data are presented as the […]
(§5) mean ± S.E.M. of four replicates. * P < 0.05 compared to CTL by one-way ANOVA […]
(§6) followed by Dunnett's multiple comparisons test. […]

[2] = test system: CR01 (colorectal carcinoma); experiment: Alamar blue viability of primary cancer cells; assay type: cell-based, human; conditions: primary CRC (first listed); 25 μg/ml (RXC 31.3 μM, DOX 46 μM); 96 h
Method: as §1, §2, §3, §4, §5, §6

[3] = test system: CR03 (metastatic cholangiocarcinoma); experiment: Alamar blue viability of primary cancer cells; assay type: cell-based, human; conditions: 25 μg/ml (RXC 31.3 μM, DOX 46 μM), 96 h
Method: as §1, §2, §3, §4, §5, §6

[4] = test system: HepG2 human hepatocellular carcinoma cells; conditions: HepG2 in monolayers or 3D multicellular cancer spheroids; cited from earlier work
PBMC = experiment: Alamar blue cytotoxicity assay, noncancerous cells; assay type: cell-based, human; conditions: 72 h, read-out: IC50 and 95%CI
Method: as §1

BJ = experiment: Alamar blue cytotoxicity assay, noncancerous cells; assay type: cell-based, human; conditions: 72 h, read-out: IC50 and 95%CI
Method: as §1

MRC-5 = experiment: Alamar blue cytotoxicity assay, noncancerous cells; assay type: cell-based, human; conditions: MRC-5 noncancerous cells, 72 h, read-out: IC50 and 95%CI
Method: as §1

HCT116 cells [5] = experiment: Trypan blue exclusion assay; assay type: cell-based, human; conditions: 2.5, 5 and 10 μM; 24, 48 and 72 h
Method: The trypan blue exclusion assay was used to quantify the number of viable cells. Briefly, 90 μl of the cell suspension plus 10 μl of trypan blue (0.4%) were mixed, and an aliquot was analyzed in a hemocytometer. The number of viable (unstained cells) and nonviable (trypan blue-stained cells) cells was counted using a light microscope.

[6] = test system: CR02 (colorectal carcinoma); experiment: Alamar blue viability of primary cancer cells; assay type: cell-based, human; conditions: primary CRC (second listed); 25 μg/ml (RXC 31.3 μM, DOX 46 μM); 96 h
Method: as §1, with “nm. […]” for “nm.”

HCT116 cells [7] = experiment: CRC tumor growth xenograft model; assay type: in vivo, C. B-17 SCID mice; conditions: 2 mg/kg i.p. once a day for 2 weeks; control 0.81 ± 0.09 g
Method: HCT116 cells (10^7 cells/500 μl) were inoculated subcutaneously into the left front armpit of mice, as previously reported. The animals were then treated intraperitoneally (200 μl/animal) once a day for 2 weeks. […] The animals were euthanized with an anesthetic overdose (thiopental, 100 mg/kg) 1 day after treatment ended, and tumors were excised, weighed, and processed for histological analysis. The inhibition ratio (percent) was calculated as follows: inhibition ratio (percent) = [(A − B)/A] × 100, where A is the average tumor weight of the negative control and B is the treated group.

HepG2 cells = conditions: C. B-17 SCID mice engrafted with HepG2 cells; cited from earlier work

cis-[Ru(phen)2(xant)](PF6) [RXC]
IC50 (JUKART): 4.08 µM | IC50 (DU 145): 4.17 µM | IC50 (SCC4): 1.89 µM | IC50 (A549): 7.03 µM | IC50 (CAL 27): 5.4 µM | IC50 (U-87 MG): 7.03 µM | IC50 (THP-1): 2.8 µM | IC50 (MCF-7): 9.55 µM | IC50 (A-375): 3.46 µM | reduced cell viability [1]: 79.6% | reduced cell viability [2]: 79.8% | reduced cell viability [3]: 79.2% | cytotoxicity [4]: potent cytotoxicity | IC50 (PBMC): 4.93 µM | IC50 (BJ): 0.76 µM | IC50 (MRC-5): 21.4 µM | number of viable cells (HCT116 cells [5]): reduced the number of viable cells | reduced cell viability [6]: 37.4% | mean weight of tumors (HCT116 cells [7]): 0.6 ± 0.05 g | tumor growth (HepG2 cells): suppressed tumor growth
